Source: US11384118B2, “CAR-T cells targeting glioma stem cells for the treatment of glioblastoma multiforme” (H. Lee Moffitt Cancer Center and Research Institute, Inc., priority 2018, dated 2022)
Entries after “also recorded” stand apart in the source; their conditions may differ. Ends that are not written are not given here.

How the values were obtained:
[1] = test system: patient-derived glioma stem cells; assay: IFNG release assay following overnight coculture of CAR-T cells with GSC; type: cell-based, human; conditions: GSC vs DGC of same patient, H2110 and media negative controls
From the text: Capitalizing on the unique ability of peptides EYA and VAV to bind to GSC, a series of chimeric antigen receptors (CARs) were designed that display a peptide derived from the EYA and VAV sequences, arranged in tandem, at the N-terminus of the CAR molecule. The role of the tandem peptides in the N-terminus of the CAR is to detect GSC, which in turn will activate the T cell through the CD3ζ domain in the C-terminus. Most CARs utilize antibody-derived molecules (Abate-Daga D, L et al. Hum Gene Ther. 2014 25(12):1003-12), or natural ligands (Brown C E, et al. N Engl J Med. 2016 375(26):2561-9; Brown C E, et al. Clin Cancer Res. 2012 18(8):2199-209) to receptors expressed by target cells to perform this function. Seven CAR constructs were generated based on combinations of peptides EYA and VAV (VAV-EYA and EYA-VAV), and of VAV plus five additional peptides (termed 1-VAV, 2-VAV, 3-VAV, 4-VAV, and 5-VAV) identified in the biopanning assays (FIG. 7). CAR cDNA was cloned into a retroviral expression vector used for clinical CAR-T cell manufacture, called pMSGV1, and the resulting constructs were used to transduce human primary T cells. The expression of the CAR molecules was first analyzed by Western blot against the CD3ζ chain of the CAR. Six of the seven CAR designs were expressed in transduced cells (FIG. 8). […]

glioblastoma tissue = assay: Fluorescent peptide staining of glioblastoma and normal brain tissue; type: binding, human; conditions: peptide conjugated with fluorescein
Description: Patient brain tissues were obtained from Cleveland Clinic Tissue Bank. Cells (GSC and DGC) or frozen-sectioned tissues (glioblastoma and normal brain) were fixed in 4% paraformaldehyde and permeabilized with 0.1% Triton X-100 and stained using following primary antibodies: EYA1 (Aviva System Biology, ARP32434_P050), SOX2 (R&D system, MAB2018), vWF (Abcam, ab68548), CD31 (Santa Cruz Biotechnology, sc-1506), MYC (Cell signaling, 5605), and SIX1 (Abcam, ab84329) primary antibodies were incubated overnight at 4° C., followed species appropriate secondary antibodies with incubation for 3.5 hours at room temperature. Nuclei were stained with DAPI, and slides were then mounted with FluorSave (Calbiochem, 345789). Images were taken using a Leica DM4000 uplight microscopy. For DAB staining, tissues were incubated with rabbit anti-EYA1 or anti-c-Myc antibody overnight at 4° C., followed goat anti-rabbit biotinylated secondary antibody with incubation for 3.5 hours at room temperature. After incubation with antibodies, tissues were stained using VECTASTAIN Elite ABC HRP Kit (VECTOR LABORATORIES, PK-6100) and DAB Peroxidase Substrate Kit (VECTOR LABORATORIES, SK-4100) according to the manufacturer's instructions. After counterstaining with 50% hematoxylin, images were taken. […]

[2] = test system: glioblastoma xenografted into the subcutaneous flank; assay: In vivo imaging after tail vein injection, subcutaneous flank xenograft; set-up: species or system NSG mice
From the text: (§1) Cyanine 5.5-conjugated peptide AWEFYFP (SEQ ID NO:2) and control peptide GGGSGGG (SEQ ID NO:33) were synthesized by LifeTein, LCC. (Hillsborough, N.J., USA). GSCs were implanted into subcutaneously (5×10^5 cells) or intracranially (5×10^4 cells) into 4 weeks old NSG mice under a Cleveland Clinic Foundation Institutional Animal Care and Use Committee approved protocol. After 4 weeks, cyanine 5.5-conjugated peptides were delivered into the mice via intravenous injection. Signals from injected peptides were monitored by fluorescence channel of IVIS Spectrum CT In Vivo Imaging System (PerkinElmer, USA) for 72 hours.

[3] = test system: intracranial glioma patient-derived xenografts; assay: In vivo imaging after tail vein injection, intracranial xenograft; set-up: species or system NSG mice
From the text: as §1

GSCs = assay: Binding of Cy5.5-conjugated peptide to GSCs / GSC tumor sphere; set-up: species or system human; conditions: peptide conjugated with Cyanine 5.5
Description: Cells were dissociated to singles with TrypLE Express (Thermo Fisher Scientific) and recovered in Neurobasal medium at 37° C. for 1-2 hours. Before the incubation with primary antibodies, cells were blocked with 2% BSA in PBS for 30-50 minutes. Primary antibodies were treated at 4° C. for 40-90 minutes. Anti-EYA1 antibody (Aviva System Biology, ARP32434_P050), anti-IgG control antibody, 5(6)-carboxyfluorescein-conjugated peptide AWEFYFP, and cyanine 5.5-conjugated peptide AWEFYFP were used as primary antibodies. After washing with 1% BSA in PBS, cells were incubated with Alexa Fluor 488-conjugated goat anti-rabbit IgG antibody (Invitrogen, A11008) at 4° C. for 40 minutes. Unstained- or secondary antibody treated-cells without a primary antibody were used as negative controls. Labeled cells were analyzed by flow cytometry.

## 5-VAV: CAR with peptide #5 linked to peptide VAV (binding agent SEQ ID NO:27) (NWYWVYPGGGGSGGGGSGGGGSSSQPFWSGSTSGSGKPGSGEGSTKG) [Peptide 5-VAV]
[1]
  IFNG release / recognition of GSC: specific recognition of GSC (but not differentiated glioma cells, DGC, derived from the same patient)

## AWEFYFP (also: carboxyfluorescein conjugate) [GBM-IC2, used fluorescein-conjugated for staining]
Glioblastoma tissue
  binding to glioblastoma tissue relative to normal brain: specifically bound to glioblastoma tissue, relative to normal brain; also recorded: preferential binding to glioblastoma tissue
Glioblastoma tissue; double staining with anti-SOX2
  binding to SOX2 expressing cells (co-staining with GSC marker SOX2): greater binding of GBM-IC2 to SOX2 expressing cells; also recorded: co-staining with SOX2

## GBM-IC2-Cy5.5: GBM-IC2 peptide conjugated with Cyanine 5.5, a near infrared marker (AWEFYFP; also: Cy5.5 conjugate)
[2]; flank xenograft
  earliest time of tumor binding after injection: 20 min
[2]; in vivo and ex vivo
  tumor targeting by imaging, flank xenograft: high specificity of binding to the tumor; also recorded: specific targeting of the tumor four hours after injection in a dose dependent manner
[3]; ex vivo brain sections
  histological analysis of peptide signal in intracranial tumor: positive fluorescent signal in the intracranial tumor samples
[3]; tail vein injection, imaging 20 minutes post-injection, in vivo and ex vivo
  tumor targeting by imaging, intracranial xenograft: strong specificity of binding of tumor in the intracranial cavity; also recorded: specific targeting of the intracranial tumor
[3]; tail vein injection, intracranial xenograft
  penetration of the BBB: penetrate the BBB
GSCs
  binding to GSCs: binding to GSCs in a concentration-dependent manner
GSCs; listed as GBM-IC2 conjugated with Cy5.5
  binding to GSCs: preferential binding to GSC tumor sphere
